The test system of the assay is adjuvant arthritis. Description: Test of action on adjuvant arthritis (therapy). Type of assay: in vivo, Lewis strain rats. Particulars: Rattus norvegicus, 96 h; oral, 1 mg/kg once a day for 4 days, in 5% gum arabic; Lewis rats with fully developed adjuvant arthritis; foot volume on day after final administration; read-out: Edema inhibition ratio (%).

Structures are written as SMILES.

Consider `CCCCC(=O)Nc1cc(NS(C)(=O)=O)c(OC2CCCCC2)cc1[N+](=O)[O-]` [Test drug 1, N-[2-cyclohexyloxy-4-nitro-5-(n-valerylamino)phenyl]methanesulfonamide], for which the inhibition in vivo at 1 mg/kg turned out to be 46.5%.

In the case of `CS(=O)(=O)Nc1cc(NC=O)c([N+](=O)[O-])cc1OC1CCCCC1` [Test drug 2], the inhibition in vivo at 1 mg/kg was determined as 43.1%. In the case of `CC(=O)Nc1cc(NS(C)(=O)=O)c(OC2CCCCC2)cc1[N+](=O)[O-]` [Test drug 3] it was 45.7%; in that of `CCC(=O)Nc1cc(NS(C)(=O)=O)c(OC2CCCCC2)cc1[N+](=O)[O-]` [Test drug 4], 48.5%; in that of `CCCC(=O)Nc1cc(NS(C)(=O)=O)c(OC2CCCCC2)cc1[N+](=O)[O-]` [Test drug 5, N-[5-(n-butyrylamino)-2-cyclohexyloxy-4-nitrophenyl)methanesulfonamide], 44.2%.

Consider `CCOC(=O)C(=O)Nc1cc(NS(C)(=O)=O)c(OC2CCCCC2)cc1[N+](=O)[O-]` [Test drug 6], for which the inhibition in vivo at 1 mg/kg amounted to 50.9%. Turning to `CCCOC(=O)C(=O)Nc1cc(NS(C)(=O)=O)c(OC2CCCCC2)cc1[N+](=O)[O-]` [Test drug 7], the inhibition in vivo at 1 mg/kg was determined as 37.2%. As for `COC(=O)CC(=O)Nc1cc(NS(C)(=O)=O)c(OC2CCCCC2)cc1[N+](=O)[O-]` [Test drug 8], the inhibition in vivo at 1 mg/kg was found to be 38%. Regarding `CCOC(=O)CCC(=O)Nc1cc(NS(C)(=O)=O)c(OC2CCCCC2)cc1[N+](=O)[O-]` [Test drug 9], the inhibition in vivo at 1 mg/kg was determined as 52.8%. As to `CS(=O)(=O)Nc1cc(N)c([N+](=O)[O-])cc1OC1CCCCC1` [Test drug 10, N-(5-amino-2-cyclohexyloxy-4-nitrophenyl)methanesulfonamide], the inhibition in vivo at 1 mg/kg is 46.7%. Under `CS(=O)(=O)Nc1ccc([N+](=O)[O-])cc1OC1CCCCC1` [compound 11] stands 19.7%.

These data come from patent publication US5374764A, “5-aminosulfonanilide compounds” (Taisho Pharmaceutical Co., Ltd., priority 1991, dated 1994).
